Several values for one entry are separate records, joined by “and”; a condition that tells them apart may be missing. Identical values can stand only once.
Key:
5-lipoxygenase = biological target: T1, 5-lipoxygenase (Rattus norvegicus, UniProt P12527); test: PMN5LO assay: inhibition of LTB4 production in A23187-stimulated rat peritoneal PMN (RIA); type: cell-based; settings: for IC50: estimated concentration required for 50% inhibition
T1 construct: endogenous in cells; host or cells: casein-elicited peritoneal polymorphonuclear leukocytes of male Sprague-Dawley rats
T1 sequence (P12527 1-673): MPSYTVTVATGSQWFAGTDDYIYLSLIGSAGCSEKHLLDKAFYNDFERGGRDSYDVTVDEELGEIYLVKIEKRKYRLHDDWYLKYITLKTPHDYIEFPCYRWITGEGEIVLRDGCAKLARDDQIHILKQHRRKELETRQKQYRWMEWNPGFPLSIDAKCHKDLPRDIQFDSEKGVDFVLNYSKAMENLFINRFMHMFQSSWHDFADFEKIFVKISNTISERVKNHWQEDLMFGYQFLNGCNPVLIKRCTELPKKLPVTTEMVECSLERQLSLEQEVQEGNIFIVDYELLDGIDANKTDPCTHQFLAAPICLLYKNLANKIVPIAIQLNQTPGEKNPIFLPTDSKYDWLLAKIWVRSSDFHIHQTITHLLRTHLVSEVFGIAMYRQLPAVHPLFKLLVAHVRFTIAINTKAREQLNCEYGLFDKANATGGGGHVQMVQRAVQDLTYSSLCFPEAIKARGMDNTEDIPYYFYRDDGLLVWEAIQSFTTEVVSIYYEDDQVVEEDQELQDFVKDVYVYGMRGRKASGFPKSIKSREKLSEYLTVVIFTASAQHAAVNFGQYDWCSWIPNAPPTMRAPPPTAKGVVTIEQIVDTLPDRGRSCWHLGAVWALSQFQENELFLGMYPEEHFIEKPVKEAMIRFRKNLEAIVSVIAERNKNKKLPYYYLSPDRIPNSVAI
Description: (§1) Two screening methods were employed for the purposes of evaluating the biological activities of the compounds of the present invention. The PMN5LO assay is a direct measure of the capacity to inhibit 5-lipoxygenase. The second protocol, RSVM-CO, is a method of determining inhibition of cyclooxygenase enzyme activity and as such it serves as a negative control.
Elicition of Rat Peritoneal polymorphonuclear leukoytes (PMN)
Male Sprague-Dawley rats (about 350 grams) were injected intraperitoneally the day before use with 8 ml of 12% sodium caseinate. The next day the animals were killed by CO2 asphyxiation and the peritoneal cavity lavaged twice with 20 ml of Hanks balanced salts containing 15 mM HEPES (pH 7.4), 1.4 mM Ca^++ and 0.7 mM Mg^++ (Hepes-Hanks). The suspensions were filtered through plastic mesh and centrifuged at […] for 5 minutes. The cells were resuspended in 50 ml Hepes-Hanks and recentrifuged. The PMN pellets were combined and suspended at 1.25×10^7 cells/ml.
The cell suspension was then diluted 1:10, preincubated 5 minutes at 37° C. and distributed in 200 μl aliquots in the wells of 96 well microtiter plates. The wells had previously received samples of the compounds of the present invention, controls, etc., in 25 μl of 0.001% fatty acidfree BSA in Hepes-Hanks. The plates were incubated 2 minutes at 37° C. and then the cells were stimulated to produce LTB4 by the addition of 25 μl of 100 μM calcium ionophore, designated A23187. After 4 minutes at 37° C. the plates were frozen in dry ice.
Radioimmunoassay (RIA) of LTB4
The frozen plates were thawed to 4° C. and 25 μl aliquots removed to V well plates. Antibody to LTB4 (50 μl) was added and, after 15 minutes at room temperature, 50 μl of ^3 H-LTB4 was added and the plates were stored overnight at 4° C. to allow equilibration. The next day the "free" 3H-LTB4 was removed by adsorption to dextran coated charcoal [90 μl per well of a 4% charcoal suspension with 0.25% Dextran T-70 in 10 mM potassium phosphate (pH 7.3) containing lmM EDTA and 0.25 mM thimerasol] during a 10 minute ice temperature incubation. The charcoal was removed by a 10 minute centrifugation at 200 sg. Aliquots of the supernatant were counted in a Packard 460, analyzed in a Masscomp computer and the data drawn up as % inhibition of LTB4 production.

cyclooxygenase = biological target: T2, cyclooxygenase (Ovis aries, UniProt P05979); test: RSVM-CO: Ram Seminal Vesicle Microsomal Cyclooxygenase assay; type: biochemical; settings: for inhibition at 0.01 µg/mL: 0.01 μg/ml; for inhibition at 0.1 µg/mL: 0.1 μg/ml; for inhibition at 1 µg/mL: 1 μg/ml
T2 construct: Ram seminal vesicular glands were trimmed of fat; from tissue; host or cells: ram seminal vesicular glands, microsomal pellet (105K xg)
T2 sequence (P05979 25-600): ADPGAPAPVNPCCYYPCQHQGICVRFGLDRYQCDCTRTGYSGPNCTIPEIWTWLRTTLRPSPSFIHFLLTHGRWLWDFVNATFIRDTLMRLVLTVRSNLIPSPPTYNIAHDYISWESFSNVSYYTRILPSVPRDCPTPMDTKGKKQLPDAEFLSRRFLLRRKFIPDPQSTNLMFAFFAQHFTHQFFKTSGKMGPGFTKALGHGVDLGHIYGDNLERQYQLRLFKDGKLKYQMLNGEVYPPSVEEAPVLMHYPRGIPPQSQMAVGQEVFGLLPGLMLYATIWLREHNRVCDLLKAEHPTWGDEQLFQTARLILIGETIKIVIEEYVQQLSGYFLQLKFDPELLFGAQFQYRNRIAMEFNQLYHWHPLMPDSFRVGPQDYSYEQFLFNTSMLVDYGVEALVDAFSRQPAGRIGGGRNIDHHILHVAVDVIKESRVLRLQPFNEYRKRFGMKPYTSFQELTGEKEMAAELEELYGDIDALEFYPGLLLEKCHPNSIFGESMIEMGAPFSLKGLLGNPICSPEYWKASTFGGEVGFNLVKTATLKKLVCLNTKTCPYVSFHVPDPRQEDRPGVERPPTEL
From the text: as §1
B. Ram Seminal Vesicle Microsomal Cyclooxygenase (RSVM-CO) Assay Protocol
Ram seminal vesicular glands were trimmed of fat, 50 grams diced into 250 mls ice cold 0.1 M potassium phosphate (pH 7.6) buffer and homogenized using a Brinkman Polytron. The suspension was centrifuged 10 minutes at […] (4° C.) and the supernatant filtered through two cheesecloth layers. The filtrate was centrifuged 160 minutes at 105K xg, the supernatant thereof discarded, and the pellet surface rinsed with a small volume of buffer. The pellets were combined in a small volume, briefly homogenized with the Polytron and frozen in 0.5 ml aliquots at -80° C. The protein concentration was about 50 mg/ml.
The thawed enzyme was diluted 1:63 with 0.125 M Na EDTA (pH 8.0) containing 50 μg/ml BSA. A substrate-cofactor premix was prepared with 66 μM ^14 C-arachidonic acid (about 20K cpm/12.5 μl) in 500 μl 0.125 M Na EDTA (pH 8.0) plus 10 μl 50 mM hydroquinone and 10 μl 200 mM glutathione. To each sample well in the 96 well plate, agents dissolved in 0.5 μ DMSO were added, followed by 12.5 μl of the diluted enzyme. After a 4 minute preincubation at room temperature, 12.5 μl of the substrate-cofactor mix was added to start the reaction. The reaction was terminated after 20 minutes at room temperature by adding 25 μl of methanol containing 200 μg PGE2 and 400 μg AA per ml.
The entire reaction mixture was spotted onto a preadsorbent silica gel GF thin layer plate and, after air drying 45 minutes, developed 12 cm in ethyl acetate:glacial acetic acid (99:1).
The developed lanes were scanned for the distribution of radiolabel using a Bioscan Imaging Detector and the integrated peaks compared to standards and controls yielding % inhibition.

Row | Compound | inhibition at 0.11 µg/mL (5-lipoxygenase; 0.11 μg/ml) | inhibition at 0.33 µg/mL (5-lipoxygenase; 0.33 μg/ml) | IC50 (5-lipoxygenase) | PMN5LO % inhibition (5-lipoxygenase; 1 μg/ml) | inhibition at 0.012 µg/mL (5-lipoxygenase; 0.012 μg/ml) | inhibition at 0.037 µg/mL (5-lipoxygenase; 0.037 μg/ml) | inhibition at 1 µg/mL (5-lipoxygenase; 1 μg/ml) | also measured
1 | CC(=O)Oc1cc(-c2cccs2)sc1-c1ccccc1 |  |  |  | 74% and 100% |  |  |  | PMN5LO % inhibition (5-lipoxygenase; 0.11 μg/ml): 51% and 100%; PMN5LO % inhibition (5-lipoxygenase; 0.33 μg/ml): 52% and 100%; inhibition at 0.01 µg/mL (cyclooxygenase): 0%; inhibition at 0.1 µg/mL (cyclooxygenase): 0%; inhibition at 1 µg/mL (cyclooxygenase): 0%
2 | c1ccc(-c2ccc(-c3ccccc3)s2)cc1 | 15% | 23% | 4000 nM |  | 13% | 0% | 38% | 
3 | COc1ccc(-c2sc3c(c2OC(C)=O)CCCC3)cc1 |  | 85% | 650 nM | 97% |  |  | 100% | PMN5LO % inhibition (5-lipoxygenase; 0.33 μg/ml): 88%; IC50 (5-lipoxygenase; unit inferred): 380 nM; inhibition at 0.1 µg/mL (cyclooxygenase): 100%; inhibition at 1 µg/mL (cyclooxygenase): 11%
4 | CC(=O)Oc1cc(-c2ccccc2)sc1-c1cccnc1 [Compound 16, 3-Acetoxy-2-(3'-pyridyl)-5-phenylthiophene] |  | 94% | 230 nM | 88% |  |  | 100% | PMN5LO % inhibition (5-lipoxygenase; 0.33 μg/ml): 84%; inhibition at 0.1 µg/mL (cyclooxygenase): 0%; inhibition at 1 µg/mL (cyclooxygenase): 0%
5 | CC(=O)Oc1cc(-c2ccccc2)sc1-c1ccccc1C | 17% | 34% |  |  | 15% | 15% | 79% | 
6 | COc1ccc(-c2sc3c(c2OC(C)=O)Cc2ccccc2-3)cc1 |  |  | 2500 nM |  |  |  |  | PMN5LO % inhibition (5-lipoxygenase; 0.012 μg/ml): 0%; inhibition at 0.37 µg/mL (5-lipoxygenase; 0.37 μg/ml (so in the source)): 42%
7 | CC(=O)Oc1cc(-c2ccccc2)oc1-c1ccccc1 | 36% | 53% |  | 33% and 66% | 25% | 6% |  | 
8 | CC(=O)Oc1csc(-c2ccccc2)c1 [Compound 1] | 1% | 19% |  |  | 5% | 0% | 18% | 
9 | CC(=O)Oc1cc(-c2cccc(C(F)(F)F)c2)sc1-c1ccccc1 [Compound 5] |  |  |  |  |  |  | 38% | 

The next lines start with results.

Row | inhibition at 0.11 µg/mL (5-lipoxygenase; 0.11 μg/ml) | inhibition at 0.33 µg/mL (5-lipoxygenase; 0.33 μg/ml) | IC50 (5-lipoxygenase) | PMN5LO % inhibition (5-lipoxygenase; 1 μg/ml) | inhibition at 0.012 µg/mL (5-lipoxygenase; 0.012 μg/ml) | inhibition at 0.037 µg/mL (5-lipoxygenase; 0.037 μg/ml) | inhibition at 1 µg/mL (5-lipoxygenase; 1 μg/ml) | Compound | also measured
10 | 31% | 74% | 580 nM and 350 nM |  |  |  |  | COCOc1cc(-c2ccccc2)sc1-c1ccccc1 [Compound 12, 2,5-Diphenyl-3-(methoxymethoxy)-thiophene] | PMN5LO % inhibition (5-lipoxygenase; 0.11 μg/ml): 40%; PMN5LO % inhibition (5-lipoxygenase; 0.33 μg/ml): 84%; inhibition at 0.01 µg/mL (cyclooxygenase): 28%; inhibition at 0.1 µg/mL (cyclooxygenase): 0%; inhibition at 1 µg/mL (cyclooxygenase): 100%
11 |  |  |  | 18% |  |  |  | CC(=O)Oc1c(-c2ccccc2)sc(-c2ccccc2)c1-c1ccccc1 [Compound 8] | 
12 |  | 100% | 200 nM | 58% | 0% |  |  | COCC(=O)Oc1cc(-c2ccccc2)sc1-c1ccccc1 [Compound 10] | PMN5LO % inhibition (5-lipoxygenase; 0.037 μg/ml): 28% and 51%; PMN5LO % inhibition (5-lipoxygenase; 0.11 μg/ml): 73%; IC50 (5-lipoxygenase; unit inferred): 110 nM; inhibition at 0.1 µg/mL (cyclooxygenase): 60%
13 | 0% | 0% |  |  | 0% | 0% | 0% | COc1cc(-c2ccccc2)sc1-c1ccccc1 [Compound 19] | 
14 |  |  |  |  |  |  | 22% | CCC(=O)Oc1cc(-c2cccc(C(F)(F)F)c2)sc1-c1ccccc1 [Compound 6] | 
15 | 96% | 100% | 120 nM |  | 20% | 46% | 96% | Cc1ccccc1-c1cc(O)c(-c2ccccc2)s1 [Compound 18, 3-Hydroxy-5-(2-methylphenyl)-2-phenylthiophene] | 
16 |  |  |  |  |  |  | 13% | CC(=O)Oc1c(C)sc(-c2ccccc2)c1-c1ccccc1 [Compound 9] | 
17 |  |  | > 3000 nM |  |  |  |  | COc1ccc(-c2sc3c(c2OC(C)=O)CCCc2ccccc2-3)cc1 [Compound 20] | 
18 | 45% | 81% |  |  | 14% | 19% | 87% | Oc1cc(-c2ccccc2)sc1-c1cccnc1 [Compound 22] | 

Source: US4999436A, “Aryl-substituted thiophene 3-ols, derivatives and analogs useful as lipoxgenase inhibitors” (Merck & Co., Inc., priority 1989, dated 1991)
